Source: patent US20240423981A1, “TREATMENT OF HCM WITH PYRIMIDINEDIONE COMPOUNDS” (MyoKardia, Inc., priority 2017, published 2024)

Columns and labels:
[1] = test system: subjects with symptomatic HCM and LVOT obstruction; experiment: Phase 2 open-label pilot study Pioneer-HCM-B (Cohort B); format: in vivo, human
Protocol: This trial was similar to the trial described in Example 3, but will have several important differences. For example, subjects in the Phase 2-B trial will not be required to discontinue their β-blocker therapy, and the dose of Compound 1 will be reduced to 2 to 5 mg.
The following results were obtained generally following the procedures described in Example 3 and Example 5.

[2] = test system: subjects with clinically stable HCM; experiment: Study Compound 1-001 (MYK-461-001): SAD trial in HCM patients; format: in vivo, human; details: for LVOT Gradient Post-dose: upon provocation
Protocol: Three clinical studies have investigated the safety and tolerability of Compound 1 to date; conduct of 2 studies has completed and 1 study is ongoing. A double-blind, placebo-controlled, single ascending-dose study (SAD) (Compound 1-002) was conducted in healthy men. Subjects received single doses ranging from 1 mg to 48 mg. Conduct of an open-label sequential-group SAD study in subjects with clinically stable HCM (Compound 1-001) is also complete; single doses of up to 144 mg were administered. In addition, a double-blind, placebo-controlled, multiple ascending-dose (MAD) study (Compound 1-003) is being conducted in which healthy adult subjects have received multiple doses of Compound 1 up to 25 mg once daily (QD) for up to 28 days.
In Study MYK-461-001, single doses of up to 144 mg were administered to 15 subjects with HCM. […] In terms of causality assessment, there are no nonclinical or other clinical data to implicate Compound 1 in cardiac ion channel current modulation, or cardiac impulse generation or conduction. […] Other potential contributions to the event include chronic […] with metoprolol succinate 150 mg QD, and the observation that the subject inadvertently performed the Valsalva maneuver during the handgrip strength assessment immediately prior to the event.
LVOT obstruction was resolved in patients following a single dose of Compound 1, as shown in the results in Table 2. […] Each patient was administered single 96 mg dose of Compound 1. Both patients' gradients were resolved following dosing.

[3] = 2 mg/day for 4 weeks, preliminary
[4] = Cohort B (2-5 mg daily doses), mean ± SD
[5] = Cohort B, baseline to Week 12, n 10

## CC(C)n1c(=O)cc(N[C@@H](C)c2ccccc2)[nH]c1=O [Compound 1, (S)-3-Isopropyl-6-((1-phenylethyl)amino) pyrimidine-2, 4(1H,3H)-dione]
[1]; 2 mg/day for 4 weeks, absence of a change in afterload
  LV filling pressure and diastolic peak mitral annular velocity: beneficial effects on LV filling pressure (↓E/e′ and NTpro-BNP) and in diastolic peak mitral annular velocity (e′)
[1]; [3]
  LV systolic function at rest and immediately post-exercise: not affected
  effect on LVOT rest and exercise gradients: consistent effect on LVOT rest and exercise gradients
[1]; 12 weeks of Compound 1, 4 weeks of washout (FIG. 21)
  NYHA functional class: improvement in NYHA functional class in individuals after 12 weeks and the reversal of improvement after 4 weeks of washout
[1]; Cohort B
  patients with >1.5 mL/kg/min improvement in pVO2: *5 of 10 patients had >1.5 mL/kg/mm improvement in pVO2
  patients with improved NYHA Class: 8 of 10 and **Improved NYHA Class in 9 out of 10 patients
[1]; Cohort B (2 mg/day), preliminary, mean ± SD, N 5, baseline 84 ± 76 (6)
  Resting Gradient Week 4: 59 ± 61 mm Hg
[1]; Cohort B (2 mg/day), preliminary, mean ± SD, N 6, baseline 3.9 ± 1.1 (6)
  Septal e′ Week 4: 4.5 ± 1.4
[1]; Cohort B (2 mg/day), preliminary, mean ± SD, N 6, baseline 4.7 ± 1.0 (6)
  Mean e′ Week 4: 5.7 ± 1.3
[1]; Cohort B (2 mg/day), preliminary, mean ± SD, N 6, baseline 5.4 ± 1.0 (6)
  Lateral e′ Week 4: 7.0 ± 1.2
[1]; Cohort B (2 mg/day), preliminary, mean ± SD, N 6, baseline 14.0 ± 3.4 (6)
  E/e′ Week 4: 10.7 ± 3.5
[1]; Cohort B (2 mg/day), preliminary, mean ± SD, N 6, baseline 70 ± 45 (6)
  Post-exercise Gradient Week 4: 93 ± 56 mm Hg
[1]; Cohort B (2 mg/day), preliminary, mean ± SD, N 6, baseline 71 ± 4 (6)
  Resting LVEF Week 4: 73 ± 6%
[1]; Cohort B (2 mg/day), preliminary, mean ± SD, N 6, baseline 73.3 ± 6.5 (6)
  Stroke Volume Week 4: 77.8 ± 14.3 mL
[1]; Cohort B (2 mg/day), preliminary, mean ± SD, N 6, baseline 78 ± 9 (5)
  Post-exercise LVEF Week 4: 76 ± 3%
[1]; Cohort B (2 mg/day), preliminary, mean ± SD, N 7, baseline 2162 ± 3601 (8)
  NT-pro BNP Week 4: 1258 ± 1789 pg/mL
[1]; Cohort B (2-5 mg daily doses)
  improvement in peak VO2 in 4 subjects: ≥ 2.9 mL/min/kg
[1]; [4]
  Dyspnea numerical rating (signed change): −3.0 ± 2.8
  NYHA Class (signed change): −1.0 ± 0.5
  Peak VO2 (signed change): +1.67 ± 2.3 mL/kg/min
  Post-exercise peak LVOT gradient (signed change): −25.0 ± 28.7 mmHg
  Resting LVEF (signed change): −5.5 ± 6.0%
  Resting LVOT gradient (signed change): −48.5 ± 48.0 mmHg
[1]; Cohort B, baseline to Week 12, n 9
  NT-proBNP Delta: −1195 ± 2770
[1]; [5]
  Dyspnea score Delta: −3.0 ± 2.8
  E/e′ Delta: −1.3 ± 4.6
  LA Vol (index) Delta: −6 ± 12 mL/m^2
  LVEDV Delta: 6 ± 18
  Lateral e′ Delta: 0.3 ± 2.2 cm/s
[1]; Cohort B, baseline 4.0 ± 2.6, n 10
  Dyspnea score Week 12: 1.0 ± 0.7
[1]; Cohort B, baseline 5.9 ± 1.0, n 10
  Lateral e′ Week 12: 6.1 ± 2.1 cm/s
[1]; Cohort B, baseline 13.9 ± 3.5, n 10
  E/e′ Week 12: 12.6 ± 4.1
[1]; Cohort B, baseline 41 ± 20, n 10
  LA Vol (index) Week 12: 35 ± 12 mL/m^2
[1]; Cohort B, baseline 95 ± 15, n 10
  LVEDV Week 12: 101 ± 25
[1]; Cohort B, baseline 1834 ± 3209, n 9
  NT-proBNP Week 12: 826 ± 1063
[1]; by week 12 (FIG. 23)
  peak VO2: improvement in peak VO2 by week 12
[1]; throughout the trial, improvement reversed after 4 weeks of washout (FIG. 22)
  dyspnea: rapid improvement in peak in dyspnea
[2]; 48 mg single dose cohort
  Responders %: 50%
  Responders n: 2/4
[2]; 96 mg single dose cohort
  Responders %: 83%
  Responders n: 5/6
[2]; 144 mg single dose cohort
  Responders %: 80%
  Responders n: 4/5
[2]; 2 subjects, single 96 mg dose
  LVOT gradients following Valsalva after dosing: < 10 mm Hg
[2]; Patient 1, single 96 mg dose
  LVOT Gradient % Decrease: (79%)
[2]; Patient 1, single 96 mg dose, pre-dose 42
  LVOT Gradient Post-dose: 9 mmHg
[2]; Patient 2, single 96 mg dose
  LVOT Gradient % Decrease: (82%)
[2]; Patient 2, single 96 mg dose, pre-dose 28
  LVOT Gradient Post-dose: 5 mmHg
[2]; all subjects with HCM, single doses 48-144 mg
  proof of mechanism: LV contractility: reduced LV contractility by at least 1 of 3 independent echocardiographic measures
[2]; human, in vivo
  number of adverse events (AEs): 35
  severity of adverse events: all mild to moderate
[2]; single doses of up to 144 mg, 15 subjects with HCM
  tolerability: well tolerated without deaths, withdrawals due to AEs, or dose-related treatment-emergent AEs, except for 1 of 5 subjects who received the 144 mg dose
[2]; two subjects with LVOT pressure gradient, single 96 mg dose
  LVOT obstruction after a single dose: resolved
